# What was measured:
# NRF2 = test: Western blot of NRF2 in hippocampus of STZ‐treated 3 × Tg‐AD mice; format: in vivo, mouse; details: STZ 53%, – STZ 100%
# Description: In addition, isolated hippocampal and cortex tissues from transgenic mice (as described in Animal studies) were homogenized and extracted proteins (10 µg) were separated and blotted. After being blocked, the membranes were probed with antibody against mouse NRF2 (1:500; Sigma-Aldrich), CREB (1:500; Millipore), pCREB (S133) (1:1000; Millipore), or GAPDH (1:1000; MDBio), and the immune complexes detected as described above.
# Mice harboring APPSwe, PS1M146V, and […] transgenes (3×Tg-AD) (Oddo et al., 2003) were purchased from the Jackson Laboratory (004807; Bar Harbor, ME, USA). Six-month-old male homozygous 3×Tg-AD mice were group housed at 20–25°C and 60% relative humidity under a daily 12-h light/12-h dark cycle, with assess to food and water ad libitum. Mice were randomly divided into 3 groups: – streptozocin (STZ), STZ, and STZ/LM-031 (n = 10 per group). STZ-induced hyperglycemia was used to accelerate the development of AD phenotype (Chen et al., 2014). Briefly, the mice were fasted for 12 h each day prior to intraperitoneal (i.p.) injection of STZ ([…]; Sigma-Aldrich) or vehicle (0.1 M sodium citrate pH4.5) for 4 times (days 2, 3, 9, and 10) (Chen et al., 2019). Mouse body weight was measured and blood glucose level was measured on days 1, 8, 15, 22, and 29 using a blood glucose meter (Bioland Technology, Taipei, Taiwan). […]
# BDNF = test: Western blot of BDNF in ∆K280 TauRD‐DsRed SH‐SY5Y cells; format: cell-based, human; details: 1 µM, uninduced 100%
# Description: (§1) Total proteins from ∆K280 TauRD-DsRed SH-SY5Y cells were obtained using a RIPA buffer containing 50 mM Tris-HCl (pH8.0), 150 mM NaCl, 2 mM EDTA (pH8.0), 50 mM NaF, 0.1% SDS, 0.5% sodium deoxycholate, 1% NP40, and a protease inhibitor cocktail (Sigma-Aldrich). After sonication and sitting on ice for 20 min, the lysates were centrifuged at 14,000 × g for 30 min at 4°C. Protein concentrations were determined using a protein assay kit (Bio-Rad, Hercules, CA, USA), with albumin as a standard. Total proteins (20 µg) were electrophoresed on 10% or 12% SDS-polyacrylamide gel and transferred onto polyvinylidene difluoride (PVDF) membranes (Sigma-Aldrich) through reverse electrophoresis. […] Subsequently, immune complexes were detected using a horseradish peroxidase-conjugated goat anti-mouse or goat anti-rabbit IgG antibody (1:5000; GeneTex, Irvive, CA, USA) and a chemiluminescent substrate (Millipore).
# GCLC = test: Western blot of GCLC in ∆K280 TauRD‐DsRed SH‐SY5Y cells; format: cell-based, human; details: 1 µM; induced untreated 78%, uninduced 100%
# Description: as §1
# [1] = test system: STZ‐induced hyperglycemic 3 × Tg‐AD mice; test: Morris water maze task in STZ‐treated 3 × Tg‐AD mice; format: in vivo, mouse; details: for Morris water maze latency to hidden platform: 40 mg/kg i.p.
# Description: (§2) Mice harboring APPSwe, PS1M146V, and […] transgenes (3×Tg-AD) (Oddo et al., 2003) were purchased from the Jackson Laboratory (004807; Bar Harbor, ME, USA). Six-month-old male homozygous 3×Tg-AD mice were group housed at 20–25°C and 60% relative humidity under a daily 12-h light/12-h dark cycle, with assess to food and water ad libitum. Mice were randomly divided into 3 groups: – streptozocin (STZ), STZ, and STZ/LM-031 (n = 10 per group). STZ-induced hyperglycemia was used to accelerate the development of AD phenotype (Chen et al., 2014). Briefly, the mice were fasted for 12 h each day prior to intraperitoneal (i.p.) injection of STZ ([…]; Sigma-Aldrich) or vehicle (0.1 M sodium citrate pH4.5) for 4 times (days 2, 3, 9, and 10) (Chen et al., 2019). Mouse body weight was measured and blood glucose level was measured on days 1, 8, 15, 22, and 29 using a blood glucose meter (Bioland Technology, Taipei, Taiwan). LM-031 (40 mg/kg) or vehicle (DMSO:Cremophor EL:0.9% saline = 1:2:7) was intraperitoneally injected every day for 22 days from days 15 to 36. All animal procedures were ethically approved by the Institutional Animal Care and Use Committee of National Taiwan Normal University, Taipei, Taiwan (Permit Number: 103002) and were conducted in compliance with the ARRIVE (Animal Research: Reporting In Vivo Experiments) guidelines.
# The water maze apparatus consisted of a circular pool with diameter 100 cm and height 76 cm, a submerged platform 1 cm below the water surface, four types of cues providing distal landmarks in the testing room, and a video camera suspended 250 cm above the center of the pool and connected to a video tracking system. The pool was filled up with water (24–26°C, 35 cm high) rendered opaque by the addition of nontoxic white paint. Mice relied on external cues to find the hidden platform in opaque water. One day prior to spatial training, all mice underwent pretraining to examine animals’ swimming ability and to acclimatize them to the pool. For pretraining (day 29), each mouse was placed in the pool to swim for 60 sec. After three trials, a platform was placed in the center of the pool and the mouse was allowed to remain there for 20 sec. For training (days 30–33), the platform was placed in a quadrant and each mouse received four trials per day for 4 consecutive days, with a cue signaling the platform position. The submerged platform remained there and entry points changed semi-randomly throughout all trials. The trial ended either when the mouse climbed onto the platform or when 60 seconds had elapsed. At the end of each trial the mouse was placed on the platform and faced the cue for 20 sec, learning where the platform was. […] All the data were analyzed by PhenoTracker.
# [2] = PAMPA‐BBB permeability assay
# Description: The permeability of LM-031 was determined by a PAMPA-BBB assay. Briefly, the donor well (Millipore) was filled with 300 μl of LM-031 (1 μM) solution. […] The filter membrane (PVDF membrane, pore size 0.45 μm; Millipore) was coated with 4 μl of 20 mg/ml porcine polar brain lipid (Avanti Polar Lipids, Alabaster, AL, USA) in dodecane and the acceptor well was filled with 200 μl of acceptor buffer (5% DMSO in PBS). The filter plate was carefully placed on the donor plate to form a “sandwich” (consisting of aqueous donor on the bottom, artificial lipid membrane in the middle, and aqueous acceptor on the top). Each compound was tested in triplicate. The sandwich plate was incubated at room temperature for 18 h. After the permeation time, the PAMPA sandwich plate was separated. The concentration of LM-031 in the acceptor and donor wells was determined using QTRAP 6500 mass spectrometer (AB SCIEX, Singapore) linked to 1200 HPLC system (Agilent Technologies, Palo Alto, CA, USA).
# [3] = test system: STZ‐induced hyperglycemic 3 × Tg‐AD mice; test: Open‐field test in STZ‐treated 3 × Tg‐AD mice; format: in vivo, mouse; details: day 24; 40 mg/kg i.p.
# Description: as §2, with “guidelines. […]” for “guidelines.”
compound,measurement,setting,value
"O=C(c1ccccc1)c1cc2c(O)cccc2oc1=O [LM‐031, 3‐benzoyl‐5‐hydroxychromen‐2‐one]",NRF2 level in hippocampus,NRF2,92%
same,"BDNF protein level, 14 kDa",BDNF; induced untreated 82%,155%
same,"BDNF protein level, 32 kDa",BDNF; induced untreated 83%,101%
same,GCLC protein level,GCLC,120%
same,Morris water maze duration in target quadrant,"[1]; probe trials 2 and 48 hr (days 34 and 36), STZ 17 s, – STZ 26 s",24 s
same,Morris water maze latency to hidden platform,"[1]; testing on day 34, STZ 39 s, – STZ 21 s",26 s
same,Morris water maze latency to hidden platform,"[1]; training day 3, STZ 43 s, – STZ 31 s",31 s
same,Morris water maze latency to hidden platform,"[1]; training day 4, STZ 40 s, – STZ 26 s",30 s
same,"Papp at 18 h, 1 µM",[2],4.8 ± 0.12 ×10⁻⁶ cm/s
same,open‐field distance traveled and inactive time,[3],No significant change

# Reference: publication PMC7433010, “Exploration of multi‐target effects of 3‐benzoyl‐5‐hydroxychromen‐2‐one in Alzheimer’s disease cell and mouse models” (Aging Cell, 2020)
